Laboratory results as given in US12163953B2, “P-phenylene ethynylene compounds as bioactive and detection agents” (STC.UNM, priority 2014, dated 2024).

How the values were obtained:
[1] = molecular target: T1, HEWL amyloids (Gallus gallus, UniProt P00698); assay: Excitation and emission spectra of PEs with HEWL amyloids; format: binding, hen; settings: PE 500 nM, HEWL amyloid 5 μM monomer basis
T1 construct: Lyophilized HEWL was dissolved at 10 mg/mL in 10 mM pH 3 sodium citrate buffer with 0.1 M NaCl; purchased Sigma-Aldrich; host or cells: hen egg white; fibrillised in house (pH 3, 70 °C, stirred)
T1 sequence (P00698 19-147): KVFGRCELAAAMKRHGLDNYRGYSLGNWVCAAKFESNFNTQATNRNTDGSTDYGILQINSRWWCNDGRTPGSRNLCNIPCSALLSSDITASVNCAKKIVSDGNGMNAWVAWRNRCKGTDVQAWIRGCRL
Procedure: Excitation and emission spectra of PEs in phosphate buffer alone, with monomeric HEWL and with HEWL amyloids (8 h incubated) are shown in FIGS. 18A-H, and relevant photophysical properties are summarized in Table 1. FIGS. 18A-H illustrate excitation (A, B, C, D) and emission (right; E, F, G. H) spectra of PEs (A, E: PE1+; B, F: PE1−; C, G: PE2+; D, H: PE3+) in phosphate buffer (PB, pH 7.4, 10 mM) alone (long dashed line) with HEWL monomers (short dashed line) and with HEWL amyloids (solid line); PE concentration: 500 nM, protein concentration: 5 μM monomer basis/0.25 mg/mL; emission and excitation wavelengths, respectively, were chosen as shown in Table 1 for each sample. A 10:1 molar ratio of protein to PE was used for these experiments. Absorbance spectra were taken, but background light scattering from insoluble amyloid aggregates made them difficult to interpret, so “fluorescence detected absorbance” in the form of excitation spectra was used instead. Normalized excitation and emission spectra, in which peak shifts and lineshape changes of spectra were somewhat easier to visualize, were used. […] PE1+ (FIG. 18E) had no change in wavelength or lineshape of emission spectrum, just a large increase in intensity when mixed with amyloids. The excitation spectra (FIGS. 18A, B, C, D) show a notable bathochromic shift for each PE in solution mixed with amyloid, of 23, 27, 35 and 29 nm for PE1+, PE2+, PE3+ and PE1−, respectively, observing only the low-energy band. The high-energy band, less relevant for imaging purposes, was also bathochromically shifted. […] PE1− had similar excitation spectrum (FIG. 18B) with monomer and amyloid, except for a large intensity difference.
Lyophilized HEWL was dissolved at 10 mg/mL in 10 mM pH 3 sodium citrate buffer with 0.1 M NaCl. The solution was incubated in a 70C oil bath and magnetically stirred at 250 rpm for 12 h, and aliquots were withdrawn at half-hour intervals. […] Half of each aliquot was immediately diluted into pH 7.4 phosphate buffer to prevent further influence of acidic conditions and stored at 4C.
(§1) For studies of fluorescence enhancement vs. protein incubation time, dyes were mixed with protein sample in phosphate buffer (10 mM, pH 7.4) at equal monomer concentration of 10 μM in the wells of a standard 96-well plate. Emission spectra were obtained using top read with a SpectraMax M2e plate-reading spectrophotometer (Molecular Devices, Sunnyvale, CA). Experiments were performed in duplicate and errors are reported as standard deviation. For analysis of bound PE excitation and emission spectra and protein-PE energy transfer, PEs (500 nM) were mixed with protein sample (5 μM, monomer basis) in phosphate buffer and the solution transferred to a quartz, fluorometry cuvette. Spectra were obtained on a PTI QuantaMaster 40 steady state spectrofluorometer (HORIBA Scientific, Edison, NJ).

[2] = molecular target: T1, HEWL amyloids; assay: HEWL to PE Förster resonance energy transfer; format: binding, hen; settings: excitation 280 nm
Text: The results are summarized as FRET efficiencies in FIG. 20, illustrating HEWL ? PE FRET efficiencies calculated from spectral data by the equation E=FA/(FD+FA) where FD is the integrated area under the donor emission peak, and FA is the integrated area under the acceptor emission peak. This simple expression is valid for this case since the PEs are nonfluorescent when excited at the donor excitation wavelength, eliminating crosstalk. Thus, FA is the total number of energy transfer events, and (FA+FD) is the total number of excitation events. Theoretically, the efficiencies should be convertible into distances by
as §1, with “Spectra were obtained on a PTI QuantaMaster 40 steady state spectrofluorometer (HORIBA Scientific, Edison, NJ).” left out

[3] = Absorbance/fluorescence spectroscopy and fluorescence quantum yield (comparative method) of PEs and PE/substrate aggregates; format: physicochemical
[4] = in water; cited from earlier work

## CCOC(=O)c1ccc(C#Cc2cc(OCC[N+](C)(C)C)c(C#Cc3ccc(C#Cc4cc(OCC[N+](C)(C)C)c(C#Cc5ccc(C#Cc6cc(OCC[N+](C)(C)C)c(C#Cc7ccc(C(=O)OCC)cc7)cc6OCC[N+](C)(C)C)cc5)cc4OCC[N+](C)(C)C)cc3)cc2OCC[N+](C)(C)C)cc1 [PE3+]
[1]
  bathochromic shift of excitation spectrum, low-energy band, with amyloid: 35 nm
  blueshifting of the fluorescence maximum with amyloid: ~10 nm
  λem (PB w/ HEWL): 453 nm
  λex (PB w/HEWL), high-energy band: 335 nm
  λex (PB w/HEWL), low-energy band: 434 nm

## CCOC(=O)c1ccc(C#Cc2cc(OCC[N+](C)(C)C)c(C#Cc3ccc(C#Cc4cc(OCC[N+](C)(C)C)c(C#Cc5ccc(C(=O)OCC)cc5)cc4OCC[N+](C)(C)C)cc3)cc2OCC[N+](C)(C)C)cc1 [PE2+]
[2]
  HEWL to PE FRET efficiency, relative: highest efficiency
[3]; +2C with DLPG, −1C with LaCh
  centre of structured emission upon aggregation with substrate: 450 nm
[3]; […] PE with 16 uM DLPG
  fluorescence quantum yield of aggregate with DLPG: 0.63
[3]; at 440 nm
  fluorescence enhancement on aggregation with DLPG: 39 times
[3]; in water, corrected value of this study
  fluorescence quantum yield, PE alone: ≤ 0.016
[1]
  bathochromic shift of excitation spectrum, low-energy band, with amyloid: 27 nm
  blueshifting of the fluorescence maximum with amyloid: ~10 nm
  λem (PB w/ HEWL): 445 nm
  λex (PB w/HEWL), high-energy band: 337 nm
  λex (PB w/HEWL), low-energy band: 426 nm
[4]
  fluorescence quantum yield, previously reported value: 0.039
